Test results: PubChem BioAssay AID256 (DTP/NCI, 2004)
Several values for one entry are separate records, joined by “and”; a condition that tells them apart may be missing. Equal values may be shown once. Inconclusive results and toxic doses are left out.

Test system: CD2F1 mice, L1210 leukemia ip, survival T/C
Test: NCI In Vivo Anticancer Drug Screen. Data for tumor model L1210 Leukemia (intraperitoneal) in CD2F1 (CDF1) mice
Conditions: higher = longer survival
Method in brief: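 Activity against a transplanted murine tumor was judged by comparing the compound group with a vehicle group. The outcome in the treated animals was divided by that in the controls.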

[1] = endpoint: mean survival time, dose: 100.0 mg/kg/injection, schedule: Q04DX002 (ip), vehicle: saline with Tween-80
[2] = endpoint: mean survival time, dose: 200.0 mg/kg/injection, schedule: Q04DX002 (ip), vehicle: saline with Tween-80

`CCOC(=O)Nc1cc(NC(C)/C(=N/O)c2ccccc2)c([N+](=O)[O-])c(N)n1` (centres undefined) was tested, and the T/C (endpoint: median survival time, dose: 25.0 mg/kg/injection, schedule: Q01DX005 (ip), vehicle: Klucel (hydroxypropylcellulose) (HPC)) was 119 % of control and 98 % of control, the T/C (endpoint: median survival time, dose: 30.0 mg/kg/injection, schedule: Q01DX005 (ip), vehicle: Klucel (hydroxypropylcellulose) (HPC)) was 98 % of control and the T/C (endpoint: median survival time, dose: 40.0 mg/kg/injection, schedule: Q01DX005 (ip), vehicle: Klucel (hydroxypropylcellulose) (HPC)) was 119 % of control. For the same compound, the T/C (endpoint: median survival time, dose: 60.0 mg/kg/injection, schedule: Q01DX005 (ip), vehicle: Klucel (hydroxypropylcellulose) (HPC)) was 110 % of control, the T/C (endpoint: median survival time, dose: 120.0 mg/kg/injection, schedule: Q01DX005 (ip), vehicle: Klucel (hydroxypropylcellulose) (HPC)) was 122 % of control and the T/C (endpoint: median survival time, dose: 200.0 mg/kg/injection, schedule: Q01DX005 (ip), vehicle: Klucel (hydroxypropylcellulose) (HPC)) was 188 % of control.

`COC(=O)C12OCC34C(CC5C(C)=C(O)C(=O)CC5(C)C3C(O)C1O)OC(=O)C(OC(=O)C=C(C)C)C24` (centres undefined) was tested, and the T/C (endpoint: mean survival time, dose: 125.0 micrograms/kg/injection, schedule: Q01DX009 (ip), vehicle: saline + alcohol) was 103 % of control, the T/C (endpoint: mean survival time, dose: 250.0 micrograms/kg/injection, schedule: Q01DX009 (ip), vehicle: saline + alcohol) was 100 % of control and the T/C (endpoint: mean survival time, dose: 500.0 micrograms/kg/injection, schedule: Q01DX009 (ip), vehicle: saline + alcohol) was 98 % of control. For the same compound, the T/C (endpoint: mean survival time, dose: 1000.0 micrograms/kg/injection, schedule: Q01DX009 (ip), vehicle: saline + alcohol) was 104 % of control, the T/C (endpoint: mean survival time, dose: 2000.0 micrograms/kg/injection, schedule: Q01DX009 (ip), vehicle: saline + alcohol) was 101 % of control and the T/C (endpoint: mean survival time, dose: 4000.0 micrograms/kg/injection, schedule: Q01DX009 (ip), vehicle: saline + alcohol) was 115 % of control.

With `O=C(COc1ccc(F)cc1)OCCOC(=O)COc1ccc(F)cc1` the T/C [1] was 100 % of control and the T/C [2] was 95 % of control.

With `COc1cc2c(c(OC)c1OC)-c1ccc(OC)c(=O)cc1[C@@H](NC(C)=O)CC2` the T/C (endpoint: mean survival time, dose: 0.02 mg/kg/injection, schedule: Q01DX009 (ip), vehicle: saline) was 117 % of control, the T/C (endpoint: mean survival time, dose: 0.03 mg/kg/injection, schedule: Q01DX009 (ip), vehicle: water) was 93 % of control and the T/C (endpoint: mean survival time, dose: 0.04 mg/kg/injection, schedule: Q01DX009 (ip), vehicle: saline) was 103 % of control. For the same compound, the T/C (endpoint: mean survival time, dose: 0.05 mg/kg/injection, schedule: Q01DX009 (ip), vehicle: saline) was 102 % of control, the T/C (endpoint: mean survival time, dose: 0.06 mg/kg/injection, schedule: Q01DX005 (ip), vehicle: Klucel (hydroxypropylcellulose) (HPC)) was 103 % of control and the T/C (endpoint: mean survival time, dose: 0.08 mg/kg/injection, schedule: Q01DX009 (ip), vehicle: saline) was 105 % of control. For the same compound, the T/C (endpoint: mean survival time, dose: 0.1 mg/kg/injection, schedule: Q01DX009 (ip), vehicle: saline) was 100 % of control, the T/C (endpoint: mean survival time, dose: 0.13 mg/kg/injection, schedule: Q01DX005 (ip), vehicle: Klucel (hydroxypropylcellulose) (HPC)) was 97 % of control and the T/C (endpoint: mean survival time, dose: 0.13 mg/kg/injection, schedule: Q01DX005 (ip), vehicle: water) was 117 % of control. For the same compound, the T/C (endpoint: mean survival time, dose: 0.16 mg/kg/injection, schedule: Q01DX009 (ip), vehicle: saline) was 111 % of control, the T/C (endpoint: mean survival time, dose: 0.19 mg/kg/injection, schedule: Q01DX009 (ip), vehicle: saline) was 104 % of control and the T/C (endpoint: mean survival time, dose: 0.25 mg/kg/injection, schedule: Q01DX005 (ip), vehicle: Klucel (hydroxypropylcellulose) (HPC)) was 114 % of control. The T/C (endpoint: mean survival time, dose: 0.25 mg/kg/injection, schedule: Q01DX005 (ip), vehicle: water) was 122 % of control, the T/C (endpoint: mean survival time, dose: 0.35 mg/kg/injection, schedule: Q04DX004 (ip), vehicle: saline) was 111 % of control and the T/C (endpoint: mean survival time, dose: 0.38 mg/kg/injection, schedule: Q01DX009 (ip), vehicle: saline) was 111 % of control. For the same compound, the T/C (endpoint: mean survival time, dose: 0.5 mg/kg/injection, schedule: Q01DX005 (ip), vehicle: Klucel (hydroxypropylcellulose) (HPC)) was 123 % of control, the T/C (endpoint: mean survival time, dose: 0.54 mg/kg/injection, schedule: Q04DX004 (ip), vehicle: saline) was 112 % of control and the T/C (endpoint: mean survival time, dose: 0.75 mg/kg/injection, schedule: Q01DX009 (ip), vehicle: saline) was 118 % of control and 111 % of control. For the same compound, the T/C (endpoint: mean survival time, dose: 0.8 mg/kg/injection, schedule: Q04DX004 (ip), vehicle: saline) was 115 % of control, the T/C (endpoint: mean survival time, dose: 1.2 mg/kg/injection, schedule: Q04DX004 (ip), vehicle: saline) was 122 % of control and the T/C (endpoint: median survival time, dose: 0.02 mg/kg/injection, schedule: Q01DX009 (ip), vehicle: saline) was 88 % of control and 100 % of control. The T/C (endpoint: median survival time, dose: 0.04 mg/kg/injection, schedule: Q01DX009 (ip), vehicle: saline) was 100 % of control, the T/C (endpoint: median survival time, dose: 0.08 mg/kg/injection, schedule: Q01DX009 (ip), vehicle: saline) was 100 % of control and 105 % of control and the T/C (endpoint: median survival time, dose: 0.13 mg/kg/injection, schedule: Q01DX005 (ip), vehicle: saline) was 111 % of control. The T/C (endpoint: median survival time, dose: 0.16 mg/kg/injection, schedule: Q01DX009 (ip), vehicle: saline) was 114 % of control and 111 % of control, the T/C (endpoint: median survival time, dose: 0.25 mg/kg/injection, schedule: Q01DX005 (ip), vehicle: saline) was 123 % of control and the T/C (endpoint: median survival time, dose: 1.0 mg/kg/injection, schedule: Q01DX005 (ip), vehicle: saline) was 164 % of control. For the same compound, the T/C (endpoint: median survival time, dose: 2.0 mg/kg/injection, schedule: Q01DX005 (ip), vehicle: saline) was 111 % of control.

For `O=c1c2[nH]cnc2ncn1C1CCCC1`, the T/C (endpoint: mean survival time, dose: 100.0 mg/kg/injection, schedule: Q01DX001 (ip), vehicle: other) was 100 % of control, the T/C (endpoint: mean survival time, dose: 200.0 mg/kg/injection, schedule: Q01DX001 (ip), vehicle: other) was 100 % of control and the T/C (endpoint: mean survival time, dose: 400.0 mg/kg/injection, schedule: Q01DX001 (ip), vehicle: other) was 101 % of control.

With `CNCc1ccc2c(c1)OCO2` the T/C (endpoint: mean survival time, dose: 75.0 mg/kg/injection, schedule: Q01DX001 (ip), vehicle: saline) was 100 % of control and the T/C (endpoint: mean survival time, dose: 150.0 mg/kg/injection, schedule: Q01DX001 (ip), vehicle: saline) was 103 % of control.

`CS(=O)(=O)OCCF` was tested, and the T/C (endpoint: mean survival time, dose: 1.5 mg/kg/injection, schedule: Q04DX003 (ip), vehicle: saline with Tween-80) was 98 % of control, the T/C (endpoint: mean survival time, dose: 3.0 mg/kg/injection, schedule: Q04DX003 (ip), vehicle: saline with Tween-80) was 98 % of control and the T/C (endpoint: mean survival time, dose: 6.0 mg/kg/injection, schedule: Q04DX003 (ip), vehicle: saline with Tween-80) was 103 % of control.

In the case of `CC[C@@]1(O)C[C@H](OC2CC(N(C)C)C(OC3CC(O)C(O[C@@H]4O[C@@H](C)C(=O)C=C4N)C(C)O3)C(C)O2)c2c(cc3c(c2O)C(=O)c2c(O)ccc(O)c2C3=O)[C@H]1C(=O)OC` (some centres undefined), the T/C (endpoint: mean survival time, dose: 0.02 mg/kg/injection, schedule: Q01DX009 (ip), vehicle: suspension in saline) is reported as 102 % of control, the T/C (endpoint: mean survival time, dose: 0.05 mg/kg/injection, schedule: Q01DX009 (ip), vehicle: suspension in saline) is reported as 96 % of control and the T/C (endpoint: mean survival time, dose: 0.1 mg/kg/injection, schedule: Q01DX009 (ip), vehicle: suspension in saline) is reported as 103 % of control. The T/C (endpoint: mean survival time, dose: 0.2 mg/kg/injection, schedule: Q01DX009 (ip), vehicle: suspension in saline) was 115 % of control, the T/C (endpoint: mean survival time, dose: 0.4 mg/kg/injection, schedule: Q01DX009 (ip), vehicle: suspension in saline) was 108 % of control and the T/C (endpoint: mean survival time, dose: 0.8 mg/kg/injection, schedule: Q01DX009 (ip), vehicle: suspension in saline) was 123 % of control. For the same compound, the T/C (endpoint: mean survival time, dose: 1.6 mg/kg/injection, schedule: Q01DX009 (ip), vehicle: suspension in saline) was 111 % of control.

`CC1=NNC(C)(C)C1` was tested, and the T/C (endpoint: mean survival time, dose: 25.0 mg/kg/injection, schedule: Q01DX009 (ip), vehicle: Klucel (hydroxypropylcellulose) (HPC)) was 96 % of control, the T/C (endpoint: mean survival time, dose: 50.0 mg/kg/injection, schedule: Q01DX009 (ip), vehicle: Klucel (hydroxypropylcellulose) (HPC)) was 97 % of control and the T/C (endpoint: mean survival time, dose: 100.0 mg/kg/injection, schedule: Q01DX009 (ip), vehicle: Klucel (hydroxypropylcellulose) (HPC)) was 92 % of control. The T/C (endpoint: mean survival time, dose: 100.0 mg/kg/injection, schedule: Q01DX009 (ip), vehicle: saline) was 102 % of control, the T/C (endpoint: mean survival time, dose: 200.0 mg/kg/injection, schedule: Q01DX009 (ip), vehicle: Klucel (hydroxypropylcellulose) (HPC)) was 97 % of control and the T/C (endpoint: mean survival time, dose: 200.0 mg/kg/injection, schedule: Q01DX009 (ip), vehicle: saline) was 105 % of control. The T/C (endpoint: mean survival time, dose: 400.0 mg/kg/injection, schedule: Q01DX009 (ip), vehicle: Klucel (hydroxypropylcellulose) (HPC)) was 97 % of control and the T/C (endpoint: mean survival time, dose: 400.0 mg/kg/injection, schedule: Q01DX009 (ip), vehicle: saline) was 103 % of control.

In the case of `Cc1cc(C(=O)O)c(CC(=O)O)o1`, the T/C [1] is reported as 104 % of control, the T/C [2] is reported as 104 % of control and the T/C (endpoint: mean survival time, dose: 400.0 mg/kg/injection, schedule: Q04DX002 (ip), vehicle: saline with Tween-80) is reported as 86 % of control.

In the case of `CCN(CCc1ccc(N)cc1)C(Cc1ccccc1)c1cccc(OC)c1` (centres undefined), the T/C (endpoint: mean survival time, dose: 12.5 mg/kg/injection, schedule: Q01DX009 (ip), vehicle: saline) is reported as 102 % of control, the T/C (endpoint: mean survival time, dose: 12.5 mg/kg/injection, schedule: Q04DX003 (ip), vehicle: saline) is reported as 103 % of control and the T/C (endpoint: mean survival time, dose: 25.0 mg/kg/injection, schedule: Q01DX009 (ip), vehicle: saline) is reported as 97 % of control. The T/C (endpoint: mean survival time, dose: 25.0 mg/kg/injection, schedule: Q04DX003 (ip), vehicle: saline) was 97 % of control, the T/C (endpoint: mean survival time, dose: 50.0 mg/kg/injection, schedule: Q01DX009 (ip), vehicle: saline) was 100 % of control and the T/C (endpoint: mean survival time, dose: 50.0 mg/kg/injection, schedule: Q04DX003 (ip), vehicle: saline) was 95 % of control.
